Our source for the IC50 values is ChEMBL document CHEMBL1127641, “Applications of combinatorial technologies to drug discovery. 1. Background and peptide combinatorial libraries” (J Med Chem, 1994).

The experiment concerns the target Beta-secretase (BACE) (Homo sapiens, UniProt Q9Y5Z0+P56817). Description: Inhibitory activity against aspartyl protease. It counts as protein assay.

Consider `CC[C@H](C)[C@H](NC(=O)[C@H](Cc1ccccc1)NC(C)=O)C(=O)NC(CC(C)C)C(O)CC(=O)NC(CC(C)C)C(N)=O` (stereo in doubt), for which the concentration for half-maximal inhibition (IC50) – broadly, the concentration at which inhibition is half-maximal – was 1.4 µM.
